# Source: paper PMC7265341, “Quantifying CDK inhibitor selectivity in live cells” (Nature Communications, 2020)
# Read-outs that look alike come from different tables or passages of the source.
# Experiments:
# [1] = target: CDK16/Cyclin Y (Homo sapiens, UniProt Q00536); assay: NanoBRET live-cell target engagement, CDK16-NanoLuc/Cyclin Y in HEK-293; format: binding; settings: CDK16/Y; for IC50: read-out: IC50; for inhibition at 10 µM: read-out: Inhibition at 10µM (%)
# [2] = target: CDK15/Cyclin Y (Homo sapiens, UniProt Q96Q40); assay: NanoBRET live-cell target engagement, NanoLuc-CDK15/Cyclin Y in HEK-293; format: binding; settings: CDK15/Y; for IC50: read-out: IC50; for inhibition at 10 µM: read-out: Inhibition at 10µM (%)
# [3] = target: CDK3/Cyclin E1 (Homo sapiens, UniProt Q00526); assay: NanoBRET live-cell target engagement, CDK3-NanoLuc/Cyclin E1 in HEK-293; format: binding; settings: CDK3/E1, read-out: Inhibition at 10µM (%)
# [4] = target: CDK19/Cyclin C (Homo sapiens, UniProt Q9BWU1); assay: NanoBRET live-cell target engagement, NanoLuc-CDK19/Cyclin C in HEK-293; settings: read-out: Inhibition at 10µM (%), CDK19/C
# [5] = target: CDK13/Cyclin K (Homo sapiens, UniProt Q14004); assay: NanoBRET live-cell target engagement, CDK13-NanoLuc/Cyclin K in HEK-293; format: binding; settings: CDK13/K, read-out: Inhibition at 10µM (%)
# [6] = target: T1, CDK11A/Cyclin L2 (Homo sapiens, UniProt Q9UQ88); assay: NanoBRET live-cell target engagement, CDK11A-NanoLuc/Cyclin L2 in HEK-293; format: binding; settings: CDK11a/L2, read-out: Inhibition at 10µM (%)
# T1 sequence (Q9UQ88 1-783): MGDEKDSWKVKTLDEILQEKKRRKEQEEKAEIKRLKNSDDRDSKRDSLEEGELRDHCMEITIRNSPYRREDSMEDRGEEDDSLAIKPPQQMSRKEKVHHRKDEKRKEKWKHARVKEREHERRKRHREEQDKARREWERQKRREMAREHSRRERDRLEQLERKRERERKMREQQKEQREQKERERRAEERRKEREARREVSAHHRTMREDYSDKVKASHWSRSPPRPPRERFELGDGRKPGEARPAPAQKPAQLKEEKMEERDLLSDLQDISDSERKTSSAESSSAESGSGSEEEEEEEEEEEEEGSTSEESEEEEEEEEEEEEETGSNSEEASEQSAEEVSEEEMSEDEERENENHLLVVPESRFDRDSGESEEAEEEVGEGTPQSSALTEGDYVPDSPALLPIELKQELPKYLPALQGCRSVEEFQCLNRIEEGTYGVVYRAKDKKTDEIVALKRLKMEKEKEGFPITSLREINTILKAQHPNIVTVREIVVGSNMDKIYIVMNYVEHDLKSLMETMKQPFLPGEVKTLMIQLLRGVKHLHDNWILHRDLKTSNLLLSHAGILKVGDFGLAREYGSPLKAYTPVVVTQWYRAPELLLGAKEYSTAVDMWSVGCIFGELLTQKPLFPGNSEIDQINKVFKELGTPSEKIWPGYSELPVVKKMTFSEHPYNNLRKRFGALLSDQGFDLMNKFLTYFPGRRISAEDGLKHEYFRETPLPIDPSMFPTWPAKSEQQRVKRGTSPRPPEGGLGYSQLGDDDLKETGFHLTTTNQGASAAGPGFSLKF
# [7] = target: CDK5/CDK5R1 (Homo sapiens, UniProt Q00535); assay: NanoBRET live-cell target engagement, CDK5-NanoLuc/CDK5R1 in HEK-293; format: binding; settings: CDK5/CDK5R1, read-out: Inhibition at 10µM (%)
# [8] = target: CDK7 (Homo sapiens, UniProt P50613); assay: NanoBRET live-cell target engagement, NanoLuc-CDK7 in HEK-293; format: binding; settings: CDK7, read-out: Inhibition at 10µM (%)
# [9] = target: CDK4/Cyclin D1 (Homo sapiens, UniProt P11802); assay: NanoBRET live-cell target engagement, NanoLuc-CDK4/Cyclin D1 in HEK-293; format: binding; settings: CDK4/D1, read-out: Inhibition at 10µM (%)
# [10] = target: CDK11B/Cyclin L2 (Homo sapiens, UniProt P21127); assay: NanoBRET live-cell target engagement, CDK11B-NanoLuc/Cyclin L2 in HEK-293; format: binding; settings: CDK11b/L2, read-out: Inhibition at 10µM (%)
# [11] = target: CDK9/Cyclin K (Homo sapiens, UniProt P50750); assay: NanoBRET live-cell target engagement, NanoLuc-CDK9/Cyclin K in HEK-293; format: binding; settings: CDK9/K, read-out: Inhibition at 10µM (%)
# [12] = target: CDK6/Cyclin D1 (Homo sapiens, UniProt Q00534); assay: NanoBRET live-cell target engagement, NanoLuc-CDK6/Cyclin D1 in HEK-293; format: binding; settings: for inhibition at 10 µM: read-out: Inhibition at 10µM (%)
# [13] = target: CDK18/Cyclin Y (Homo sapiens, UniProt Q07002); assay: NanoBRET live-cell target engagement, CDK18-NanoLuc/Cyclin Y in HEK-293; format: binding; settings: CDK18/Y, read-out: Inhibition at 10µM (%)
# [14] = target: CDK20/Cyclin H (Homo sapiens, UniProt Q8IZL9); assay: NanoBRET live-cell target engagement, NanoLuc-CDK20/Cyclin H in HEK-293; format: binding; settings: CDK20/H, read-out: Inhibition at 10µM (%)
# [15] = target: CDK17/Cyclin Y (Homo sapiens, UniProt Q00537); assay: NanoBRET live-cell target engagement, CDK17-NanoLuc/Cyclin Y in HEK-293; format: binding; settings: CDK17/Y, read-out: Inhibition at 10µM (%)
# [16] = target: CDK8/Cyclin C (Homo sapiens, UniProt P49336); assay: NanoBRET live-cell target engagement, NanoLuc-CDK8/Cyclin C in HEK-293; format: binding; settings: CDK8/C, read-out: Inhibition at 10µM (%)
# [17] = target: CDK1/Cyclin E1 (Homo sapiens, UniProt P06493); assay: NanoBRET live-cell target engagement, CDK1-NanoLuc/Cyclin E1 in HEK-293; format: binding; settings: CDK1/E1, read-out: Inhibition at 10µM (%)
# [18] = target: CDK12/Cyclin K (Homo sapiens, UniProt Q9NYV4); assay: NanoBRET live-cell target engagement, CDK12-NanoLuc/Cyclin K in HEK-293; format: binding
# [19] = target: CDK2/Cyclin E1 (Homo sapiens, UniProt P24941); assay: NanoBRET live-cell target engagement, CDK2-NanoLuc/Cyclin E1 in HEK-293; format: binding; settings: CDK2/E1, read-out: Inhibition at 10µM (%)
# Sequence of CDK13/Cyclin K (O75909 whole entry): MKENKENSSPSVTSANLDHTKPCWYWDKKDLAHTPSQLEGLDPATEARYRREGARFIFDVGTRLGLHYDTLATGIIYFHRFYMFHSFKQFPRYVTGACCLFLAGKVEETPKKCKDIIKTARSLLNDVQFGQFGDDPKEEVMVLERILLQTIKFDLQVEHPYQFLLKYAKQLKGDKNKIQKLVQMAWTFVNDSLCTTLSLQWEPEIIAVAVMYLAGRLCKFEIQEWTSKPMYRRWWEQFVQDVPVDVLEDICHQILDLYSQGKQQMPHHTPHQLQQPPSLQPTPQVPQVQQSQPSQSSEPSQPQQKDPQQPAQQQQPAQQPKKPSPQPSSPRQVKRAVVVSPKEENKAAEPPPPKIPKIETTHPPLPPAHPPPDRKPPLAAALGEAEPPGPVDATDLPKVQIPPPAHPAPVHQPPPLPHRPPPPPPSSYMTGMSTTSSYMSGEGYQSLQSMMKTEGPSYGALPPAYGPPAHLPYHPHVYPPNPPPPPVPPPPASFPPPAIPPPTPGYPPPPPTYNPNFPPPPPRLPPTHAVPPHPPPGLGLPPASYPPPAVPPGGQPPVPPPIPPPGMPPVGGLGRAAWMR
# Sequence of CDK13/Cyclin K (Q14004 other isoform, or with tags, fused parts or gaps): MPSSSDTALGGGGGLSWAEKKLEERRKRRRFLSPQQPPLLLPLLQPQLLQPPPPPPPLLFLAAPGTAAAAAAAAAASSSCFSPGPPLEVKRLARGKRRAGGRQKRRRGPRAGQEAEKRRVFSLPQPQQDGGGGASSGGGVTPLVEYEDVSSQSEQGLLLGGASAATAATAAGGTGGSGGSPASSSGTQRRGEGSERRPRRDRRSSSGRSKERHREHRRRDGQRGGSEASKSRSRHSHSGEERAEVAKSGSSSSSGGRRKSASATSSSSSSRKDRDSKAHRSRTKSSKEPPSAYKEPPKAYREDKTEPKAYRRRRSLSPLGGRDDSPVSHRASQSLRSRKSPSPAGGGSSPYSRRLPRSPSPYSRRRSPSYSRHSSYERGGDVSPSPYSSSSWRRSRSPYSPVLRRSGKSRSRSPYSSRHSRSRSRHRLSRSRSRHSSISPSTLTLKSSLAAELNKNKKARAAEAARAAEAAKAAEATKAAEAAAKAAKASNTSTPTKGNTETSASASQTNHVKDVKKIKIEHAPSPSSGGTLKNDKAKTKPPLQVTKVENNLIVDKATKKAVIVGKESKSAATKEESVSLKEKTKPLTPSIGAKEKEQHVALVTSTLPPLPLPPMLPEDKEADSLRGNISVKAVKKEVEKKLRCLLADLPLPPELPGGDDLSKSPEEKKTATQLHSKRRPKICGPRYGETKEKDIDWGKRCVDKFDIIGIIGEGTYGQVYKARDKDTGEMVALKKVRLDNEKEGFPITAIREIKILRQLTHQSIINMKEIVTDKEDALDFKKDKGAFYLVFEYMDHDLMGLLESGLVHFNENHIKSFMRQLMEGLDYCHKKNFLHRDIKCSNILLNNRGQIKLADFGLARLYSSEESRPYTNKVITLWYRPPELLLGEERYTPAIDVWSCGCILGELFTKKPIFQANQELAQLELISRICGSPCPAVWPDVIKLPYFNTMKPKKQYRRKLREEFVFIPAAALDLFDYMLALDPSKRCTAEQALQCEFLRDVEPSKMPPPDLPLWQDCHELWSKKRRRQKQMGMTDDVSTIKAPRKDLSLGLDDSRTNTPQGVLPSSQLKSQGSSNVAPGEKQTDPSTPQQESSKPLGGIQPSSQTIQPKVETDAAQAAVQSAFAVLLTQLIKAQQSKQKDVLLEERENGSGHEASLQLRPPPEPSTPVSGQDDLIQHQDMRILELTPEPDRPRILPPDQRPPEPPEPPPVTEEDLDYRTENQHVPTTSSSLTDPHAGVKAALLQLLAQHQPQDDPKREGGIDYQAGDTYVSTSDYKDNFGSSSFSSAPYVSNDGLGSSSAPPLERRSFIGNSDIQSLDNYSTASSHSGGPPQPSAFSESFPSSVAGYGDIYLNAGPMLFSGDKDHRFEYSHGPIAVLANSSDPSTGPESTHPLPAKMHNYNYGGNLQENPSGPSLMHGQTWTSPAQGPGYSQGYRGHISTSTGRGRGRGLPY
# Sequence of CDK1/Cyclin E1 (P06493 whole entry): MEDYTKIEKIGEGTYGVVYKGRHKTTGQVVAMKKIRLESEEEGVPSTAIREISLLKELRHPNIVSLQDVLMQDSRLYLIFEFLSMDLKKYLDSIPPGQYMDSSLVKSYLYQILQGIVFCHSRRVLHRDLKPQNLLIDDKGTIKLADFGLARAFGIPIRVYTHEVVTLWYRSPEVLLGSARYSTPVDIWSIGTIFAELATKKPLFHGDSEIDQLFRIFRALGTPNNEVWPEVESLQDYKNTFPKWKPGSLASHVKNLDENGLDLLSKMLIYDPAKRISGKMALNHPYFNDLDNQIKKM
# Sequence of CDK1/Cyclin E1 (P24864 whole entry partner): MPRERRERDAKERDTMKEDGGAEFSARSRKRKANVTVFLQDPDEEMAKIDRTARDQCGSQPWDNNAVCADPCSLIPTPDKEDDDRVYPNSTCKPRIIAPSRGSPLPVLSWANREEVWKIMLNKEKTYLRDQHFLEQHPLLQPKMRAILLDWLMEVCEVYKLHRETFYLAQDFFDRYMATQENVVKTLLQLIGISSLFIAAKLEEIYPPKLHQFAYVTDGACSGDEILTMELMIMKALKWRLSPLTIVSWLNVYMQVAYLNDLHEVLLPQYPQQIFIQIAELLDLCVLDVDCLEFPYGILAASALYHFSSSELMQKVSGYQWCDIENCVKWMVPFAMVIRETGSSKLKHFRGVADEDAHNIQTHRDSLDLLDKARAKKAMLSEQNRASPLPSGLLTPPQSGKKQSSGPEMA
# Sequence of CDK3/Cyclin E1 (Q00526 whole entry): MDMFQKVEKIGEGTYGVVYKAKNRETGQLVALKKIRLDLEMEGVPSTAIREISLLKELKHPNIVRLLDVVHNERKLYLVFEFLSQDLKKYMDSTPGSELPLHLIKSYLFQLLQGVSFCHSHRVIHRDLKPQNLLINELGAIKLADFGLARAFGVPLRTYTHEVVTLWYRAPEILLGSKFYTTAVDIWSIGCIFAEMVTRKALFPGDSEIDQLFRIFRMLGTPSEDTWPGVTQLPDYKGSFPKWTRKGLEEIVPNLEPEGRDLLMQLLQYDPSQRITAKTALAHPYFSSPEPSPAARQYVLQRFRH
# Sequence of CDK3/Cyclin E1 (P24864 whole entry partner): as the sequence (P24864 whole entry partner) above
# Sequence of CDK17/Cyclin Y (Q00537 whole entry): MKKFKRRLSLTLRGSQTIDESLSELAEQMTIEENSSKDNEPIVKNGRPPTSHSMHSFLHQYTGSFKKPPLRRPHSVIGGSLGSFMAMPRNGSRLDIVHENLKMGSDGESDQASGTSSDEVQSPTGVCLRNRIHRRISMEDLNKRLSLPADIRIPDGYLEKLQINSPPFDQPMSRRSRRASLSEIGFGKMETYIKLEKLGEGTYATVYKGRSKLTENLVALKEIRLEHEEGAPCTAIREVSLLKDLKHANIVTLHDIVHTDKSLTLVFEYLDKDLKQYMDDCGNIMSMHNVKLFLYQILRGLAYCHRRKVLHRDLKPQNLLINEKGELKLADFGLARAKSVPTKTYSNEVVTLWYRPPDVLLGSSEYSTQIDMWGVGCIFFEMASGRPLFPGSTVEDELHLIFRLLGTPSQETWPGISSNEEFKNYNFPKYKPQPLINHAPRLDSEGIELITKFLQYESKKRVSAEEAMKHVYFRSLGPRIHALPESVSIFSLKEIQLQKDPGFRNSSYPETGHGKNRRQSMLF
# Sequence of CDK17/Cyclin Y (Q8ND76 whole entry partner): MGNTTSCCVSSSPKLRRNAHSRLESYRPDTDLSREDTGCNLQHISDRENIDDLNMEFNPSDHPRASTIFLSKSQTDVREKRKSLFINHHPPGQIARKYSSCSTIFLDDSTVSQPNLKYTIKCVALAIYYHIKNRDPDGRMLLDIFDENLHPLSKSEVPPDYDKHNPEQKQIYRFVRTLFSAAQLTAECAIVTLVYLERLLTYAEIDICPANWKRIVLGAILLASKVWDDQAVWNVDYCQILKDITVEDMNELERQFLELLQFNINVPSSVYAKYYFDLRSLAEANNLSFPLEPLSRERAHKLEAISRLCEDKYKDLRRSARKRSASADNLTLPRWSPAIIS
# Sequence of CDK18/Cyclin Y (Q07002 whole entry): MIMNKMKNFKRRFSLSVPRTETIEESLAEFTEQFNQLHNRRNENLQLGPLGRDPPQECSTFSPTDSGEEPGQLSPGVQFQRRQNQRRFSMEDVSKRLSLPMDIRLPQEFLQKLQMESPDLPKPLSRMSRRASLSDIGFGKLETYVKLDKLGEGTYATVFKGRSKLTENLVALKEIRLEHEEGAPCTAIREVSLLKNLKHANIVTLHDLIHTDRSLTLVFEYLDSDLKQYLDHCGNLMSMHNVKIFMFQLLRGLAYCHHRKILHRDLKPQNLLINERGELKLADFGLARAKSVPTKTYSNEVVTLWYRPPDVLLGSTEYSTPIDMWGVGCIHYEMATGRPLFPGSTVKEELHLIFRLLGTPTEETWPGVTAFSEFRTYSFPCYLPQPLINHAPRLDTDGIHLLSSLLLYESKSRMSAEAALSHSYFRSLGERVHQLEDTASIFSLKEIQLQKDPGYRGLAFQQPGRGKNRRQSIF
# Sequence of CDK18/Cyclin Y (Q8ND76 whole entry partner): as the sequence (Q8ND76 whole entry partner) above
# Sequence of CDK15/Cyclin Y (Q96Q40 whole entry): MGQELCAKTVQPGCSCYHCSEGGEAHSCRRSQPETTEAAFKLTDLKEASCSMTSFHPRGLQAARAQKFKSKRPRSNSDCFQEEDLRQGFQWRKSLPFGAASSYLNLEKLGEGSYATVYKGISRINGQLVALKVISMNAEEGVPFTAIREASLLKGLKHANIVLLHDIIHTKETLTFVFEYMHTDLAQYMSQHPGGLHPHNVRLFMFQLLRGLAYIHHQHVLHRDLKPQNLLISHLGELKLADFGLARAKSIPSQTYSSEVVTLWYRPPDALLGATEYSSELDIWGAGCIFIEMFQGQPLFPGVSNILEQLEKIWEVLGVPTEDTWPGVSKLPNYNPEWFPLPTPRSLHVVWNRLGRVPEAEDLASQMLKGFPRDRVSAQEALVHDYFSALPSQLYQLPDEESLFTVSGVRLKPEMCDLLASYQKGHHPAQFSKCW
# Sequence of CDK15/Cyclin Y (Q8ND76 whole entry partner): as the sequence (Q8ND76 whole entry partner) above
structure (smiles),measurement,setting,value
CNC(=O)c1nn(C)c2c1C(C)(C)Cc1cnc(Nc3ccc(N4CCN(C)CC4)cc3)nc1-2 [Milciclib],IC50,[1]; average (± SEM where n=3),300 ± 40 nM
same,IC50,[1]; experiment 1,383 nM
same,inhibition at 10 µM,[1]; experiment 1,86.4%
same,IC50,[1]; experiment 2,260 nM
same,inhibition at 10 µM,[1]; experiment 2,90.1%
same,IC50,[1]; experiment 3,273 nM
same,IC50,[2]; average (± SEM where n=3),880 ± 60 nM
same,inhibition at 10 µM,[2]; average,86%
same,IC50,[2]; experiment 1,970 nM
same,inhibition at 10 µM,[2]; experiment 1,83.8%
same,IC50,[2]; experiment 2,898 nM
same,inhibition at 10 µM,[2]; experiment 2,88.1%
same,IC50,[2]; experiment 3,778 nM
same,inhibition at 10 µM,[3]; average,77.7%
same,inhibition at 10 µM,[3]; experiment 1,74.4%
same,inhibition at 10 µM,[3]; experiment 2,80.9%
same,inhibition at 10 µM,[4]; average,19.2%
same,inhibition at 10 µM,[4]; experiment 1,44.9%
same,inhibition at 10 µM,[4]; experiment 2,-6.6%
same,inhibition at 10 µM,[5]; average,13.7%
same,inhibition at 10 µM,[5]; experiment 1,15%
same,inhibition at 10 µM,[5]; experiment 2,12.5%
same,inhibition at 10 µM,[6]; average,22.7%
same,inhibition at 10 µM,[6]; experiment 1,20.3%
same,inhibition at 10 µM,[6]; experiment 2,25%
same,inhibition at 10 µM,[7]; average,82.1%
same,inhibition at 10 µM,[7]; experiment 1,77.8%
same,inhibition at 10 µM,[7]; experiment 2,86.4%
same,inhibition at 10 µM,[8]; average,92.1%
same,inhibition at 10 µM,[8]; experiment 1,89.4%
same,inhibition at 10 µM,[8]; experiment 2,94.8%
same,inhibition at 10 µM,[9]; average,98.1%
same,inhibition at 10 µM,[9]; experiment 1,98.8%
same,inhibition at 10 µM,[9]; experiment 2,97.4%
same,inhibition at 10 µM,[10]; average,14.4%
same,inhibition at 10 µM,[10]; experiment 1,14.6%
same,inhibition at 10 µM,[10]; experiment 2,14.3%
same,inhibition at 10 µM,[11]; average,55.3%
same,inhibition at 10 µM,[11]; experiment 1,50.1%
same,inhibition at 10 µM,[11]; experiment 2,60.5%
same,IC50,"[12]; CDK6/D1, average (± SEM where n=3), read-out: IC50",110 ± 20 nM
same,inhibition at 10 µM,"[12]; CDK6/D1, average",96.3%
same,IC50,"[12]; CDK6/D1, experiment 1, read-out: IC50",110 nM
same,inhibition at 10 µM,"[12]; CDK6/D1, experiment 1",96.1%
same,IC50,"[12]; CDK6/D1, experiment 2, read-out: IC50",83 nM
same,inhibition at 10 µM,"[12]; CDK6/D1, experiment 2",96.5%
same,IC50,"[12]; CDK6/D1, experiment 3, read-out: IC50",144 nM
same,IC50,"[12]; live HEK-293, 2 h, mean ± S.E.M. (n=3) or mean (n=2), read-out: IC50 for CDK/cyclin complexes, CDK6/D1",110 ± 20 nM
same,inhibition at 10 µM,[13]; average,84.2%
same,inhibition at 10 µM,[13]; experiment 1,83.1%
same,inhibition at 10 µM,[13]; experiment 2,85.3%
same,inhibition at 10 µM,[14]; experiment 1,50.1%
same,inhibition at 10 µM,[14]; experiment 2,36.3%
same,inhibition at 10 µM,[15]; average,87.8%
same,inhibition at 10 µM,[15]; experiment 1,86.7%
same,inhibition at 10 µM,[15]; experiment 2,88.9%
same,inhibition at 10 µM,[16]; average,16%
same,inhibition at 10 µM,[16]; experiment 1,44.2%
same,inhibition at 10 µM,[16]; experiment 2,-12.1%
same,inhibition at 10 µM,[17]; average,61.1%
same,inhibition at 10 µM,[17]; experiment 1,52.9%
same,inhibition at 10 µM,[17]; experiment 2,69.2%
same,inhibition at 10 µM,"[18]; CDK12/K, experiment 1, read-out: Inhibition at 10µM (%)",16.8%
same,inhibition at 10 µM,"[18]; CDK12/K, experiment 2, read-out: Inhibition at 10µM (%)",10.6%
same,inhibition at 10 µM,"[18]; read-out: Inhibition at 10µM (%), CDK12/K, average",13.7%
same,inhibition at 10 µM,[19]; average,76.6%
same,inhibition at 10 µM,[19]; experiment 1,75.5%
same,inhibition at 10 µM,[19]; experiment 2,77.7%
